Experimental data as given in patent publication US20210395239A1 (Hoffmann-La Roche Inc., priority 2018, published 2021).
pIC50: −log10 of the molar value.

Biological target: T1, human TLR8 (Homo sapiens, UniProt Q9NR97)
T1 construct: host or cells: HEK293 (HEK-Blue hTLR8)
T1 sequence (Q9NR97 27-1041): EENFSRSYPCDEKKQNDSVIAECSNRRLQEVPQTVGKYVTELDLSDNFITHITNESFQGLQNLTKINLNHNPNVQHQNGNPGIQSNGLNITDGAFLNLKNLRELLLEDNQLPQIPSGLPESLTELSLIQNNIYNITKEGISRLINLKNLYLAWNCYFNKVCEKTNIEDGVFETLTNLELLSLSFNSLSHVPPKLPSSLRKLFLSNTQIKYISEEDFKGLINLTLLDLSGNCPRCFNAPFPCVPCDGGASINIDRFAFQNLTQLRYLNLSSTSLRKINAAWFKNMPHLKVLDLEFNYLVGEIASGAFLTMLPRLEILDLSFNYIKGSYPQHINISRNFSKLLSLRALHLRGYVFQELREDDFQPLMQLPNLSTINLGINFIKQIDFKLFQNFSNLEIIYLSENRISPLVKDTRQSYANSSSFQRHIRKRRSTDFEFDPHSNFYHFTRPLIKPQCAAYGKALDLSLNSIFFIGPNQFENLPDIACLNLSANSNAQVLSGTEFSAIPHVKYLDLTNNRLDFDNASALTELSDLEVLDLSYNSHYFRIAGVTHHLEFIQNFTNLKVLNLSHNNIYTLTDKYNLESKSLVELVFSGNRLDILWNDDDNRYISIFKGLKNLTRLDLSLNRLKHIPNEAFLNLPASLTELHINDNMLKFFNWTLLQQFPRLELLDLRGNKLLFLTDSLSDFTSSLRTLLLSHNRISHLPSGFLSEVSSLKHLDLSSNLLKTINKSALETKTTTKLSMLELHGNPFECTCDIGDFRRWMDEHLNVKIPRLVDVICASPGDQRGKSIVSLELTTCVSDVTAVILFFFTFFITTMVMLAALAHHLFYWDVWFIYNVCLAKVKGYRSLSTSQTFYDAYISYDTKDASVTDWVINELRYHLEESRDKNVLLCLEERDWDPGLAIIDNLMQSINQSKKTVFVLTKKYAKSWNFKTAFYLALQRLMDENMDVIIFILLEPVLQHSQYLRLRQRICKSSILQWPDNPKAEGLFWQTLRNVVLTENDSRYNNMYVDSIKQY
Experiment: HEK293-Blue-hTLR-8 cells assay (SEAP reporter, R848 stimulation)
Assay type: cell-based
Details: HEK293-Blue-hTLR8 cells, R848, 20 hrs; read-out: HEK/hTLR8 IC50
Outline: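 Antagonism read as reduced R848-induced SEAP reporter secretion, detected by QUANTI-Blue absorbance at 620–655 nm after 2 h. Reporter cells were exposed to compound dilutions in DMEM/10% FBS, 1% DMSO, for 20 h at 37° C.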

`Cc1cc(N2CCN(C[C@H]3CN(c4ccc(C#N)c5ncccc45)C[C@@H](C)O3)CC2)nc(N2CCOCC(N)C2)n1` (stereo partly drawn) [Example 56, 5-[(2S,6R)-2-[[4-[2-(6-amino-1,4-oxazepan-4-yl)-6-methyl-pyrimidin-4-yl]piperazin-1-yl]methyl]-6-methyl-morpholin-4-yl]quinoline-8-carbonitrile] and `Cc1cc(N2CCN(C[C@H]3CN(c4ccc(C#N)c5ncccc45)C[C@@H](C)O3)CC2)nc(N2CCNCC(O)C2)n1` (stereo partly drawn) [Example 66, 5-[(2S,6R)-2-[[4-[2-(6-hydroxy-1,4-diazepan-1-yl)-6-methyl-pyrimidin-4-yl]piperazin-1-yl]methyl]-6-methyl-morpholin-4-yl]quinoline-8-carbonitrile] are within 0.2 log units of each other in pIC50: 8.22 for the first, 8.10 for the second.

Going from `Cc1cc(N2CCN(C[C@H]3CN(c4ccc(C#N)c5ncccc45)C[C@@H](C)O3)CC2)nc(NC2CNCC2C#N)n1` (stereo partly drawn) [Example 57, 5-[(2S,6R)-2-[[4-[2-[(4-cyanopyrrolidin-3-yl)amino]-6-methyl-pyrimidin-4-yl]piperazin-1-yl]methyl]-6-methyl-morpholin-4-yl]quinoline-8-carbonitrile] to `Cc1cc(N2CCNCC2)nc(N2CCN(C[C@H]3CN(c4ccc(C#N)c5ncccc45)C[C@@H](C)O3)CC2)n1` [Example 68, 5-[(2R,6S)-2-methyl-6-[[4-(4-methyl-6-piperazin-1-yl-pyrimidin-2-yl)piperazin-1-yl]methyl]morpholin-4-yl]quinoline-8-carbonitrile], the pIC50 rises from 8.40 to 8.70 (0.30 log units). The second is the more potent here.

`Cc1cc(N2CCN(C[C@H]3CN(c4ccc(C#N)c5ncccc45)C[C@@H](C)O3)CC2)nc(N2C[C@@H]3COC[C@@H](C2)N3)n1` [Example 58, 5-[(2R,6S)-2-methyl-6-[[4-[6-methyl-2-[(1R,5R)-3-oxa-7,9-diazabicyclo[3.3.1]nonan-7-yl]pyrimidin-4-yl]piperazin-1-yl]methyl]morpholin-4-yl]quinoline-8-carbonitrile] and `CO[C@H]1CN(c2nc(C)cc(N3CCN(C[C@H]4CN(c5ccc(C#N)c6ncccc56)C[C@@H](C)O4)CC3)n2)C[C@H]1N` [Example 60, 5-[(2R,6S)-2-methyl-6-[[4-[6-methyl-2-[cis-3-amino-4-methoxy-pyrrolidin-1-yl]pyrimidin-4-yl]piperazin-1-yl]methyl]morpholin-4-yl]quinoline-8-carbonitrile] are within 0.2 log units of each other in pIC50: 8.40 for the first, 8.52 for the second.

First: Cc1cc(N2CCN(C[C@H]3CN(c4ccc(C#N)c5ncccc45)C[C@@H](C)O3)CC2)nc(N2CC3(CNCCO3)C2)n1 [Example 61, 5-[(2R,6S)-2-methyl-6-[[4-[6-methyl-2-(5-oxa-2,8-diazaspiro[3.5]nonan-2-yl)pyrimidin-4-yl]piperazin-1-yl]methyl]morpholin-4-yl]quinoline-8-carbonitrile]
Second: Cc1cc(N2CCN(C[C@H]3CN(c4ccc(C#N)c5ncccc45)C[C@@H](C)O3)CC2)nc(N2CC(N)C(F)(F)C2)n1 (stereo partly drawn) [Example 63, 5-[(2S,6R)-2-[[4-[2-(4-amino-3,3-difluoro-pyrrolidin-1-yl)-6-methyl-pyrimidin-4-yl]piperazin-1-yl]methyl]-6-methyl-morpholin-4-yl]quinoline-8-carbonitrile]
The pIC50 of the first is 0.63 log units higher: 8.52 for the first, 7.89 for the second. The first is the more potent here.

Compared with `C[C@@H]1CN(c2ccc(C#N)c3ncccc23)C[C@H](CN2CCN(c3cccc(C4CNCCO4)c3)CC2)O1` (stereo partly drawn) [Example 62, 5-[(2R,6S)-2-methyl-6-[[4-(3-morpholin-2-ylphenyl)piperazin-1-yl]methyl]-morpholin-4-yl]quinoline-8-carbonitrile], `C[C@@H]1CN(c2ccc(C#N)n3ncc(F)c23)C[C@H](CN2CCN(c3ccc([C@@H]4CNCCO4)cc3)CC2)O1` [Example 177, 3-fluoro-4-[(2R,6S)-2-methyl-6-[[4-[4-[(2R)-morpholin-2-yl]phenyl]piperazin-1-yl]methyl]morpholin-4-yl]pyrazolo[1,5-a]pyridine-7-carbonitrile] is 0.28 log units lower in pIC50: 7.85 for the first, 7.57 for the second.

Going from `Cc1cc(N2CCN(C[C@H]3CN(c4ccc(C#N)c5nccnc45)C[C@@H](C)O3)CC2)nc(N2CCNCC2)n1` [Example 64, 8-[(2R,6S)-2-methyl-6-[[4-(6-methyl-2-piperazin-1-yl-pyrimidin-4-yl)piperazin-1-yl]methyl]morpholin-4-yl]quinoxaline-5-carbonitrile] to `Cc1cc(N2CCN(C[C@H]3CN(c4ccc(C(F)(F)F)c5nccnc45)C[C@@H](C)O3)CC2)nc(N2CCNCC2)n1` [Example 65, (2R,6S)-2-methyl-6-[[4-(6-methyl-2-piperazin-1-yl-pyrimidin-4-yl)piperazin-1-yl]methyl]-4-[8-(trifluoromethyl)quinoxalin-5-yl]morpholine], the pIC50 falls from 8.70 to 8.05 (0.65 log units). The first is the more potent here.

Going from `Cc1cc(N2CCN(C[C@H]3CN(c4ccc(C#N)n5ncc(F)c45)C[C@@H](C)O3)CC2)nc(N2CCNCC2)n1` [Example 67, 3-Fluoro-4-[(2R,6S)-2-methyl-6-[[4-(6-methyl-2-piperazin-1-yl-pyrimidin-4-yl)piperazin-1-yl]methyl]morpholin-4-yl]pyrazolo[1,5-a]pyridine-7-carbonitrile] to `C[C@@H]1CN(c2ccc(C#N)n3ncc(F)c23)C[C@H](CN2CCN(c3ccc(N4CCOC5(CNC5)C4)nc3)CC2)O1` [Example 178, 3-fluoro-4-[(2R,6S)-2-methyl-6-[[4-[6-(5-oxa-2,8-diazaspiro[3.5]nonan-8-yl)-3-pyridyl]piperazin-1-yl]methyl]morpholin-4-yl]pyrazolo[1,5-a]pyridine-7-carbonitrile], the pIC50 falls from 7.64 to 7.04 (0.60 log units).

Going from `C[C@@H]1CN(c2ccc(C#N)n3ncc(F)c23)C[C@H](CN2CCN(c3ccc(N4CC5(CNCCO5)C4)nc3)CC2)O1` [Example 169, 3-fluoro-4-[(2R,6S)-2-methyl-6-[[4-[6-(5-oxa-2,8-diazaspiro[3.5]nonan-2-yl)-3-pyridyl]piperazin-1-yl]methyl]morpholin-4-yl]pyrazolo[1,5-a]pyridine-7-carbonitrile] to `C[C@@H]1CN(c2ccc(C#N)n3ncc(F)c23)C[C@H](CN2CCN(c3ccc(N4CC[C@@H](N)[C@H](F)C4)nc3)CC2)O1` [Example 175, 4-[(2S,6R)-2-[[4-[6-[(3R,4R)-4-amino-3-fluoro-1-piperidyl]-3-pyridyl]piperazin-1-yl]methyl]-6-methyl-morpholin-4-yl]-3-fluoro-pyrazolo[1,5-a]pyridine-7-carbonitrile], the pIC50 rises from 7.52 to 7.92 (0.40 log units). The second is the more potent here.

First: C[C@@H]1CN(c2cc(=O)n(C)c3ncccc23)C[C@H](CN2CC(c3ccc(N4CCNCC4)cc3)C2)O1 [Example 171, 1-methyl-4-[(2R,6S)-2-methyl-6-[[3-(4-piperazin-1-ylphenyl)azetidin-1-yl]methyl]morpholin-4-yl]-1,8-naphthyridin-2-one]
Second: C[C@@H]1CN(c2cc(=O)n(C)c3ncccc23)C[C@H](CN2CC(c3ccc(N4CC5(CNCCO5)C4)cc3)C2)O1 [Example 173, 1-methyl-4-[(2R,6S)-2-methyl-6-[[3-[4-(5-oxa-2,8-diazaspiro[3.5]nonan-2-yl)phenyl]azetidin-1-yl]methyl]morpholin-4-yl]-1,8-naphthyridin-2-one]
The pIC50 of the first is 0.24 log units lower: 6.89 for the first, 7.13 for the second.

With `C[C@@H]1CN(c2cc(=O)n(C)c3ncccc23)C[C@H](CN2CC(c3ccc(N4CC(C)(N)C4)cc3)C2)O1` [Example 176, 4-[(2S,6R)-2-[[3-[4-(3-amino-3-methyl-azetidin-1-yl)phenyl]azetidin-1-yl]methyl]-6-methyl-morpholin-4-yl]-1-methyl-1,8-naphthyridin-2-one] the pIC50 was 6.49.
